# In the NIST ThermoML archive (doi:10.1021/je800664z):
# ± gives the expanded uncertainty stated by the source.
# Assay: refractive index (Na D-line) (dimensionless); xn = mol fraction of the nth substance listed
# Conditions: 101 kPa, Liquid, Standard Abbe refractometry
smiles,measurement,setting,value
"C1COCO1 [1,3-dioxolane] + CC(C)CC(C)(C)C",refractive index,"288.15 K, x1 = 0.0501",1.39395 ± 0.00032
same,refractive index,"288.15 K, x1 = 0.1",1.39385 ± 0.00032
same,refractive index,"288.15 K, x1 = 0.15",1.39377 ± 0.00032
same,refractive index,"288.15 K, x1 = 0.2",1.39374 ± 0.00032
same,refractive index,"288.15 K, x1 = 0.25",1.39378 ± 0.00032
same,refractive index,"288.15 K, x1 = 0.3",1.39389 ± 0.00032
same,refractive index,"288.15 K, x1 = 0.35",1.39411 ± 0.00032
same,refractive index,"288.15 K, x1 = 0.4",1.3944 ± 0.00032
same,refractive index,"288.15 K, x1 = 0.45",1.39473 ± 0.00032
same,refractive index,"288.15 K, x1 = 0.5",1.39512 ± 0.00032
same,refractive index,"288.15 K, x1 = 0.55",1.39558 ± 0.00032
same,refractive index,"288.15 K, x1 = 0.6",1.3961 ± 0.00032
same,refractive index,"288.15 K, x1 = 0.65",1.39668 ± 0.00032
same,refractive index,"288.15 K, x1 = 0.7",1.39734 ± 0.00032
same,refractive index,"288.15 K, x1 = 0.75",1.39807 ± 0.00032
same,refractive index,"288.15 K, x1 = 0.8",1.39883 ± 0.00032
same,refractive index,"288.15 K, x1 = 0.85",1.39966 ± 0.00033
same,refractive index,"288.15 K, x1 = 0.9",1.40055 ± 0.00033
same,refractive index,"288.15 K, x1 = 0.95",1.40152 ± 0.00033
same,refractive index,"288.15 K, x1 = 1",1.40252 ± 0.00033
same,refractive index,"298.15 K, x1 = 0.0501",1.38898 ± 0.00032
same,refractive index,"298.15 K, x1 = 0.1",1.38885 ± 0.00032
same,refractive index,"298.15 K, x1 = 0.15",1.38876 ± 0.00032
same,refractive index,"298.15 K, x1 = 0.2",1.38876 ± 0.00032
same,refractive index,"298.15 K, x1 = 0.25",1.38883 ± 0.00032
same,refractive index,"298.15 K, x1 = 0.3",1.38897 ± 0.00032
same,refractive index,"298.15 K, x1 = 0.35",1.3892 ± 0.00032
same,refractive index,"298.15 K, x1 = 0.4",1.38948 ± 0.00032
same,refractive index,"298.15 K, x1 = 0.45",1.38982 ± 0.00032
same,refractive index,"298.15 K, x1 = 0.5",1.39022 ± 0.00032
same,refractive index,"298.15 K, x1 = 0.55",1.39068 ± 0.00032
same,refractive index,"298.15 K, x1 = 0.6",1.3912 ± 0.00032
same,refractive index,"298.15 K, x1 = 0.65",1.39178 ± 0.00032
same,refractive index,"298.15 K, x1 = 0.7",1.39243 ± 0.00032
same,refractive index,"298.15 K, x1 = 0.75",1.39318 ± 0.00032
same,refractive index,"298.15 K, x1 = 0.8",1.39399 ± 0.00032
same,refractive index,"298.15 K, x1 = 0.85",1.39487 ± 0.00033
same,refractive index,"298.15 K, x1 = 0.9",1.39581 ± 0.00033
same,refractive index,"298.15 K, x1 = 0.95",1.39683 ± 0.00033
same,refractive index,"298.15 K, x1 = 1",1.39795 ± 0.00033
same,refractive index,"308.15 K, x1 = 0.0501",1.38381 ± 0.00032
same,refractive index,"308.15 K, x1 = 0.1",1.38367 ± 0.00032
same,refractive index,"308.15 K, x1 = 0.15",1.38361 ± 0.00032
same,refractive index,"308.15 K, x1 = 0.2",1.3836 ± 0.00032
same,refractive index,"308.15 K, x1 = 0.25",1.3837 ± 0.00032
same,refractive index,"308.15 K, x1 = 0.3",1.38387 ± 0.00032
same,refractive index,"308.15 K, x1 = 0.35",1.3841 ± 0.00032
same,refractive index,"308.15 K, x1 = 0.4",1.3844 ± 0.00032
same,refractive index,"308.15 K, x1 = 0.45",1.38476 ± 0.00032
same,refractive index,"308.15 K, x1 = 0.5",1.38517 ± 0.00032
same,refractive index,"308.15 K, x1 = 0.55",1.38563 ± 0.00032
same,refractive index,"308.15 K, x1 = 0.6",1.38614 ± 0.00032
same,refractive index,"308.15 K, x1 = 0.65",1.38672 ± 0.00032
same,refractive index,"308.15 K, x1 = 0.7",1.38739 ± 0.00032
same,refractive index,"308.15 K, x1 = 0.75",1.38814 ± 0.00032
same,refractive index,"308.15 K, x1 = 0.8",1.38895 ± 0.00032
same,refractive index,"308.15 K, x1 = 0.85",1.38987 ± 0.00033
same,refractive index,"308.15 K, x1 = 0.9",1.3909 ± 0.00033
same,refractive index,"308.15 K, x1 = 0.95",1.39199 ± 0.00033
same,refractive index,"308.15 K, x1 = 1",1.39322 ± 0.00033
